The results in this text go back to PubChem BioAssay (NCI).

Common to all, as to experiment: NCI-60 cell line screen, 48 h
Test [1] has as its system BT-549 breast.
Test [2] concerns COLO 205 colon.
The test system of test [3] is DU-145 prostate.
The test system of test [4] is HOP-62 NSCLC.
Test [5] relates to HS 578T breast.
Test [6] concerns MALME-3M melanoma.
Test [7] has as its system NCI-H460 lung.
Test [8] has as its system OVCAR-4 ovarian.
Test [9] deals with SF-268 CNS.
The subject of test [10] is SK-MEL-5 melanoma.

The structures appear in SMILES notation. “And” between values parts separate entries of the source, which are not always exact repeats. Equal values may be shown once.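 Each compound was tested at five concentrations against cells in 96-well plates for 48 hours. GI50: concentration for 50% inhibition of growth. TGI: concentration producing complete growth inhibition.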 Bounds are passed on as bounds.

For `O=C(CS(=O)c1nc2ccccc2nc1-c1ccccc1)Nc1ccc(Cl)cc1` (stereo not drawn), the GI50 is 1.33 µM in test [1]; 23.4 µM in test [2]; 25.7 µM in test [3]; 23.2 µM in [4]; 19.1 µM in test [6]; 18.6 µM in [7]. In addition, the results for the GI50 in test [8], in [9] and in test [10] were 61.2 µM, 24.9 µM and 15.2 µM, respectively. Also, the TGI is 53.1 µM in test [1]; 58.6 µM in [2]; over 100 µM in [3]; 71.8 µM in test [4]; 6.88 µM in test [5]; 46.7 µM in test [6]. Besides, the TGI in test [7] is 47.7 µM; in [8], over 100 µM; in test [9], 88.2 µM; in [10], 30.8 µM.
Consider `CCc1nc(N)nc(N)c1-c1ccc(N(C)Cc2ccccc2)c([N+](=O)[O-])c1`, for which the TGI is 18.4 µM in test [1]; 8.4 µM in [2]; 31.7 µM in test [3]; 14.3 µM in test [4]; 72.7 µM in test [5]; 17.1 µM in test [6]. Moreover, the TGI in test [7] was found to be 8.72 µM; in test [8], 52.1 µM; in [9] it was 37.9 µM; in test [10], 4.32 µM.
For the compound `CN(CCCCCCCCNc1ccnc2ccccc12)Cc1ccc(-c2ccc(-c3ccc(C#N)cc3)s2)cc1`, the GI50 in [1] is 1.44 µM; in test [2], 0.63 µM; in [3] it was 1.04 µM; in test [4], 0.685 µM; in [5], 1.75 µM; in test [6] it was 0.903 µM. Moreover, the GI50 in test [7] was 0.367 µM; in test [8], 0.139 µM; in [9] it was 1.6 µM; in test [10], 0.89 µM. In addition, the TGI is 3.2 µM in [1]; 2.17 µM in test [2]; 2.38 µM in [3]; 2.5 µM in test [4]; 3.86 µM in test [5]; 2.21 µM in test [6]. For the same compound, the TGI in test [7] was 1.25 µM; in test [8], 1.99 µM; in [9] it was 3.45 µM; in test [10], 2.17 µM.
On to `Cc1c(C(=O)/C=C/c2ccc(Cl)cc2)nnn1-c1ccnc2c(C(F)(F)F)cccc12`, for which the GI50 in test [1] is over 100 µM; in test [2] it was over 100 µM; in test [3], over 100 µM; in test [4], 22 µM; in test [5] it was 64.3 µM; in [6], 26.8 µM. For the same compound, the GI50 in [7] is 48.9 µM; in [8], 0.151 µM; in [9], 21.5 µM; in test [10] it was 53.5 µM. Further, the TGI in test [1] was over 100 µM; in test [2] it was over 100 µM; in test [3], over 100 µM; in test [4], 47.8 µM; in test [5] it was over 100 µM; in test [6], over 100 µM. Further, the TGI is over 100 µM in [7], 0.966 µM in test [8], over 100 µM in test [9] and over 100 µM in test [10].
Turning to `COc1ccc2[nH]cc(C3(c4c[nH]c5ccc(OC)cc45)C(=O)Nc4ccc(Cl)cc43)c2c1`, the GI50 in test [1] was 5.08 µM; in [2] it was 1.88 µM; in [3], 4.73 µM; in test [4], 5.18 µM; in test [5] it was 5.38 µM; in [6] it was 5.02 µM. In addition, the GI50 in test [7] is 3.18 µM; in [8], 3.67 µM; in test [9], 4.81 µM; in test [10], 2.56 µM. The TGI in test [1] was 56.8 µM; in test [2] it was 3.53 µM; in [3], 29.2 µM; in test [4] it was 21.3 µM; in [5], over 100 µM; in test [6], 46.5 µM. The TGI in test [7] is 10.1 µM; in test [8], 30.5 µM; in test [9], 57.9 µM; in test [10], 7.57 µM.
On to `CC(C)c1ccc(C(c2c(O)c3ccccc3oc2=O)c2c(O)c3ccccc3oc2=O)cc1`, for which the TGI in [1] is 39.9 µM; in [2], 34.2 µM; in test [3] it was over 81.8 µM; in test [4], 50.5 µM; in test [5] it was 61.8 µM; in test [6], 38.4 µM. The TGI in test [7] is 37.6 µM; in [8], 94 µM; in test [9], 66.6 µM; in [10] it was 31.3 µM.
As to `CN(CO)c1nc(N(C)CO)nc(N(C)CO)n1`, the TGI is 43.1 µM and 36.9 µM in test [1]; 44.1 µM and 20.9 µM in test [2]; 64.8 µM and 76.5 µM in test [3]; > 90.7 µM and 56.7 µM in [4]; 55 µM and 78.3 µM in test [5]; 34.2 µM and 26.1 µM in [6]. Moreover, the TGI in test [7] is 43.6 µM and 42.8 µM; in test [8], 39.1 µM and 55.6 µM; in test [9], 64.1 µM and 70.2 µM; in [10], 32.2 µM and 33.8 µM. Further, the GI50 was 20.9 µM in [2]; 29 µM in test [3]; 42.6 µM in [4]; 21.4 µM in test [5]; 17.5 µM in test [6]; 17.2 µM and 13.9 µM in [7]. Further, the GI50 is 18.9 µM and 23.8 µM in test [8]; 26.2 µM and 18.5 µM in [9]; 18.1 µM in test [10].
As to `CCN(CC)CCOc1ccc(NC(=O)C(C(C)C)N2C(=O)/C(=C/c3ccc(Br)cc3)SC2=S)cc1` (stereo not drawn), the GI50 in test [1] was 14.4 µM; in test [2], 2.64 µM; in test [3] it was 4.44 µM; in [4] it was 2.36 µM; in test [5], 12.1 µM; in [6] it was 1.71 µM. The GI50 in [7] is 1.85 µM; in [8], 2.25 µM; in test [9], 2.27 µM; in test [10] it was 3.71 µM. Besides, the TGI in test [1] was 28.5 µM; in [2] it was 6.88 µM; in test [3], 14.7 µM; in test [4], 7.11 µM; in test [5], 35.1 µM; in test [6] it was 3.3 µM. For the same compound, the TGI in [7] came out at 3.51 µM; in test [8] it was 5.67 µM; in [9] it was 5.85 µM; in [10], 12.8 µM.
